How the values were obtained:
[1] = Binding affinity to 5' Cy5-labeled Pre-miR-210 RNA (unknown origin) incubated for 30 mins in the presence of RNase L by microscale thermophoresis analysis
[2] = Selectivity index, ratio of Kd for binding affinity to 5' Cy5-labeled microRNA-210 hairpin precursor (unknown origin) to Kd for binding affinity to 5' Cy5 end-labeled DNA hairpin (unknown origin) incubated for 30 mins in the presence of RNase L by microscale thermophoresis analysis
[3] = Binding affinity to 5' Cy5 end-labeled DNA hairpin (unknown origin) incubated for 30 mins in the presence of RNase L by microscale thermophoresis analysis
[4] = RIBOTAC activity at Pre-miR-21 RNA/RNase L in human MDA-MB-231 cells assessed as decrease in mature miR-21 levels by RT-qPCR analysis; type: cell-based
MDA-MB-231 [5] = assay: RIBOTAC activity at Pre-miR-21 RNA/RNase L in human MDA-MB-231 cells assessed as decrease in mature miR-21 levels at 5 uM by RT-qPCR analysis; type: cell-based; design: scale not given: the % may be the effect or the level left
Huntingtin [6] = target: T1, Huntingtin (Homo sapiens, UniProt P42858); assay: Inhibition of HTT (unknown origin)
T1 sequence (P42858 whole entry): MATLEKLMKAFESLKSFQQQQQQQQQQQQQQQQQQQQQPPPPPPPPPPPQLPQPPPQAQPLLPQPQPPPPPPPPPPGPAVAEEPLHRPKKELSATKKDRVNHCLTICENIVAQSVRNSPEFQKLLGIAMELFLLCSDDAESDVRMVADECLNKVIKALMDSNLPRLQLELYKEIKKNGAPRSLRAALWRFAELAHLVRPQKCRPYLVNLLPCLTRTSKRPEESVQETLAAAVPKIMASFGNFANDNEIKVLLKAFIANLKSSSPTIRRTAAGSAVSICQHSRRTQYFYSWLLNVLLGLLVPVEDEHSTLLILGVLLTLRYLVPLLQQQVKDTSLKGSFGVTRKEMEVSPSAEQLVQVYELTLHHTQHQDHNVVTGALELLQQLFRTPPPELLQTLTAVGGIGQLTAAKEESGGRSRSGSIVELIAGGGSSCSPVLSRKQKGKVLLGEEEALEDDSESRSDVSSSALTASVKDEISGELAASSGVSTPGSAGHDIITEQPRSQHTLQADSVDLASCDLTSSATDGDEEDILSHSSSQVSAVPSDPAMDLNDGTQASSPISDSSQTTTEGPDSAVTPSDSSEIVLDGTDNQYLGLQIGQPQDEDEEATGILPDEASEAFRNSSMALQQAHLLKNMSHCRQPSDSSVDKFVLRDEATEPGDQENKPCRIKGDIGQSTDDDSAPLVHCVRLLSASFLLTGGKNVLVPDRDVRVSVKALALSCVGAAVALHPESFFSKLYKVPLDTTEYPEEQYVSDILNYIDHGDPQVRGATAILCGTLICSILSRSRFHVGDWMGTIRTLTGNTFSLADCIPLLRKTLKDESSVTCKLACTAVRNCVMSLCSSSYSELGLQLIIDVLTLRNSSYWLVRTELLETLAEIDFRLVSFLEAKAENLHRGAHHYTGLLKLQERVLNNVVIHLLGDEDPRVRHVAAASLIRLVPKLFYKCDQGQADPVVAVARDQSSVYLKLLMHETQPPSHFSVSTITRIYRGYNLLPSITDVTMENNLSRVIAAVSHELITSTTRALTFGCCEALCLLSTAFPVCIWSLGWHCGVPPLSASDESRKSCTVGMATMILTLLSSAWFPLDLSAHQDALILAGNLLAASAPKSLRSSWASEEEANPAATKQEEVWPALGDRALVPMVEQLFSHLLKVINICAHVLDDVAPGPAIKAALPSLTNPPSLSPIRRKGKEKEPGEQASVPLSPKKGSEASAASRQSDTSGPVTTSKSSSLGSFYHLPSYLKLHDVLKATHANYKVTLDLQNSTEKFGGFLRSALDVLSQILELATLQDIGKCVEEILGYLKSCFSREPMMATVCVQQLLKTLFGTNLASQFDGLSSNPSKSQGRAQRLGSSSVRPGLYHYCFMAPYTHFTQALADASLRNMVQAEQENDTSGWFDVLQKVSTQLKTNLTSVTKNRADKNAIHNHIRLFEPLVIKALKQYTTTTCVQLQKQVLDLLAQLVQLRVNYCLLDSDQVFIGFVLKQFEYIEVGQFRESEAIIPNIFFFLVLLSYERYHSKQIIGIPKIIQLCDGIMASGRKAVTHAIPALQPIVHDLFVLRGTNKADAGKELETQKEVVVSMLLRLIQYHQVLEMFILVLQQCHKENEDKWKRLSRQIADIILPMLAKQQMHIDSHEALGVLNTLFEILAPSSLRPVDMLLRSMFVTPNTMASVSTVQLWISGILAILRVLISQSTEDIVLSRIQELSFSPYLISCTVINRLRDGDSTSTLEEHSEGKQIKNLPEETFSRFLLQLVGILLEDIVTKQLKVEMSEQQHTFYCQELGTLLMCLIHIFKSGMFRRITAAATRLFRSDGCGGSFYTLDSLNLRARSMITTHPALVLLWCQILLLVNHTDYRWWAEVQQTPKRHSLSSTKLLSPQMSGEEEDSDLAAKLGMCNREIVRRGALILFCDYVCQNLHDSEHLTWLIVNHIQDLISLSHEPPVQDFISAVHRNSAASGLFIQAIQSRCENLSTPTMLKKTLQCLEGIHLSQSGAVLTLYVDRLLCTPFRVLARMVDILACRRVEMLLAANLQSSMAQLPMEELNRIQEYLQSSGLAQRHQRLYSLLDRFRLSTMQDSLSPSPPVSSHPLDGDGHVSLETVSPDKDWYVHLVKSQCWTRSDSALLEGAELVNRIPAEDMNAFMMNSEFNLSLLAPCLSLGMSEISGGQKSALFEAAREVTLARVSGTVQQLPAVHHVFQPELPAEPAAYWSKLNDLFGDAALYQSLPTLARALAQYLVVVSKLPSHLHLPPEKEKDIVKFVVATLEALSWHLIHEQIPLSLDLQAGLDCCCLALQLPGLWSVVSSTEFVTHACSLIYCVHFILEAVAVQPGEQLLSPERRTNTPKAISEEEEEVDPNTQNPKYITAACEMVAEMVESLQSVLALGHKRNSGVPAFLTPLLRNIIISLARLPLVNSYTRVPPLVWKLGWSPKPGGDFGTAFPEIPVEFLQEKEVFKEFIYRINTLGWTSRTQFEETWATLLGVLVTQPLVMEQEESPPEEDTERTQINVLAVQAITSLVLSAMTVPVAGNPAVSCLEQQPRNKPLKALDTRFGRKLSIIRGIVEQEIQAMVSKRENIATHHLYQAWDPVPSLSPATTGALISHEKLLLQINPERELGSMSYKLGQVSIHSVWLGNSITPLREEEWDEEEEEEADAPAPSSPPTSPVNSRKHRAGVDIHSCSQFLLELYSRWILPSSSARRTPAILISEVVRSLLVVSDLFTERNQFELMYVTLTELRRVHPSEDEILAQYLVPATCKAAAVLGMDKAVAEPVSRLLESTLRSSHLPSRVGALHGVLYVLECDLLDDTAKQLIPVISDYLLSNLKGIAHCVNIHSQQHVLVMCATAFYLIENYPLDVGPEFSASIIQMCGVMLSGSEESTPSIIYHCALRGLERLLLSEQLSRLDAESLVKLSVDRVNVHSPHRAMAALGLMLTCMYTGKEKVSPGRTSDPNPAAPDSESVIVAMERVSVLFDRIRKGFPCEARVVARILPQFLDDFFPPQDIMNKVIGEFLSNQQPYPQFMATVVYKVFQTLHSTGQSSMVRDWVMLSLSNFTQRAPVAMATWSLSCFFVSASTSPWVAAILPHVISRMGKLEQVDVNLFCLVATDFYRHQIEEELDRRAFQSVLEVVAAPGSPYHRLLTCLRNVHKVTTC

Huntingtin [7] = target: T1, Huntingtin; assay: Induction of human HTT degradation in human SH-SY5Y cells assessed as decrease in normal HTT protein levels at 125 nM by Western blot analysis; type: cell-based; design: scale not given: the % may be the effect or the level left
Huntingtin [8] = target: T1, Huntingtin; assay: Induction of human HTT degradation in human SH-SY5Y cells assessed as decrease in HTT-transcript levels at 125 nM; type: cell-based; design: scale not given: the % may be the effect or the level left
[9] = target: T2, von Hippel-Lindau disease tumor suppressor/Bromodomain-containing protein 4 (Homo sapiens, UniProt O60885+P40337); assay: PROTAC activity at VHL/BRD4 in human MCF7 cells assessed as BRD4 degradation by measuring maximum efficacy at 50 nM measured after 24 hrs by Western blot analysis relative to control; type: cell-based
T2 sequence (P40337 whole entry, looked up, other chains not shown): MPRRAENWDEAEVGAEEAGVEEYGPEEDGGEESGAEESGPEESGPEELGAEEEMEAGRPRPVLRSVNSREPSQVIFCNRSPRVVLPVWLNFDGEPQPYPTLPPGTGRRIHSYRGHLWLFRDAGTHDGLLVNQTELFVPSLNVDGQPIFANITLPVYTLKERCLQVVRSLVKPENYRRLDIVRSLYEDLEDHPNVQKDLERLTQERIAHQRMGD

MCF7 = assay: Antitumor activity human MCF7 cells xenografted in nude mouse assessed as tumor growth inhibition at 10 mg/kg, iv administered every other day for 21 days; type: functional; conditions: MCF7, 504 h, time 21 day, read-out: TGI
[10] = target: T2, von Hippel-Lindau disease tumor suppressor/Bromodomain-containing protein 4; assay: PROTAC activity at VHL/BRD4 in human MCF7 cells assessed as BRD4 degradation measured after 24 hrs by Western blot analysis; type: cell-based
MDA-MB-231 [11] = assay: Potency index, ratio of RIBOTAC activity of test compound to RIBOTAC activity of Dovitinib at Pre-miR-21 RNA/RNase L in human MDA-MB-231 cells assessed as decrease in mature miR-21 levels by RT-qPCR analysis; type: cell-based
MDA-MB-231 [12] = assay: RIBOTAC activity at Pre-miR-21 RNA/RNase L in human MDA-MB-231 cells assessed as decrease in mature miR-21 levels at 0.2 uM by RT-qPCR analysis; type: cell-based; design: scale not given: the % may be the effect or the level left
[13] = Binding affinity to Cy5-labeled SARS-CoV-2 Attenuator hairpin RNA incubated for 20 mins by microscale thermophoresis analysis; design: species or system Severe acute respiratory syndrome coronavirus 2

CN1CCN(c2ccc3nc(-c4ccc5[nH]c(-c6cccc(OCCCC(=O)NCCCN=[N+]=[N-])c6)nc5c4)[nH]c3c2)CC1
Kd [1]: 160 nM
Ratio [2]: 5
Kd [3]: 620 nM

CN1CCN(c2ccc3nc(-c4ccc5[nH]c(-c6cccc(OCCCC(=O)NCCCOCC(O)COP(=O)(O)O[C@@H]7[C@H](O)[C@@H](COP(=O)(O)O[C@@H]8[C@H](O)[C@@H](COP(=O)(O)O[C@@H]9[C@H](O)[C@@H](COP(=O)(O)O[C@@H]%10[C@H](O)[C@@H](COP(=O)(O)O)O[C@H]%10n%10cnc%11c(N)ncnc%11%10)O[C@H]9n9cnc%10c(N)ncnc%109)O[C@H]8n8cnc9c(N)ncnc98)O[C@H]7n7cnc8c(N)ncnc87)c6)nc5c4)[nH]c3c2)CC1 (some centres not stated)
Kd [1]: 340 nM

CCCN(CC(=O)N(CCC)CC(=O)N(CCC)CC(=O)N(CC(=O)NCCOCCOCCOCCOc1ccc(/C=C2\SC(Nc3ccccc3)=C(C(=O)OCC)C2=O)cc1O)Cc1cn(CCCNC(=O)CCCOc2ccc(-c3nc4ccc(-c5ccc(N6CCN(C)CC6)cc5)cc4[nH]3)cc2)nn1)C(=O)CN(Cc1cn(CCCNC(=O)CCCOc2ccc(-c3nc4cc(-c5ccc(N6CCN(C)CC6)cc5)ccc4[nH]3)cc2)nn1)C(C)=O
IC50 [4]: 50 nM

CN1CCN(c2ccc3nc(-c4c(N)c5c(F)cccc5[nH]c4=O)[nH]c3c2)CC1
Activity (MDA-MB-231 [5]): 30%

CCN1CCC(c2cc(C)c3nc(-c4ccc5nn(C)cc5c4)cc(=O)n3c2)CC1
IC50 (Huntingtin [6]): 80 nM

CC1(C)CC(Oc2ccc(-c3ccc(-c4cn[nH]c4)cc3O)nn2)CC(C)(C)N1
Activity (Huntingtin [7]): 53%
Activity (Huntingtin [8]): 95%

Cc1ncsc1-c1ccc([C@H](C)NC(=O)[C@@H]2C[C@@H](O)CN2C(=O)[C@H](NC(=O)COCCOCCOCCNC(=O)C[C@@H]2N=C(c3ccc(Cl)cc3)c3c(sc(C)c3C)-n3c(C)nnc32)C(C)(C)C)cc1
Emax [9]: > 90%
inhibition in vivo at 10 mg/kg (MCF7): 59.8%
EC50 [10]: 13 nM

CCN1CCC(c2cc3c(F)cc(-c4cc(C)c5nc(C)cn5n4)cc3nn2)CC1
IC50 (Huntingtin [6]): 8 nM

CCOC(=O)C1=C(Nc2ccccc2)S/C(=C\c2ccc(OCCOCCOCCOCCNC(=O)NCCN3CCN(c4ccc5nc(-c6c(N)c7c(F)cccc7[nH]c6=O)[nH]c5c4)CC3)c(O)c2)C1=O
Ratio (MDA-MB-231 [11]): 5
Activity (MDA-MB-231 [12]): 30%

CC1(C)CC(Oc2ccc(-c3ccc(-c4ccnc(O)c4)cc3O)nn2)CC(C)(C)N1
IC50 (Huntingtin [6]): 40 nM

CNc1nc(Nc2cccc(C(=O)O)c2)nc2ccccc12
Kd [13]: 11 nM

From ChEMBL document CHEMBL5126605, “Nucleic-Acid-Based Targeted Degradation in Drug Discovery” (J Med Chem, 2022)
